Bounds are passed on as bounds.

Experimental findings from patent US20240174662A1, “SMALL MOLECULE INHIBITORS OF SALT INDUCIBLE KINASES” (Janssen Biotech, Inc., priority 2021, published 2024) are described below.

Chain of SIK2 (Q9H0K1 whole entry, species assumed): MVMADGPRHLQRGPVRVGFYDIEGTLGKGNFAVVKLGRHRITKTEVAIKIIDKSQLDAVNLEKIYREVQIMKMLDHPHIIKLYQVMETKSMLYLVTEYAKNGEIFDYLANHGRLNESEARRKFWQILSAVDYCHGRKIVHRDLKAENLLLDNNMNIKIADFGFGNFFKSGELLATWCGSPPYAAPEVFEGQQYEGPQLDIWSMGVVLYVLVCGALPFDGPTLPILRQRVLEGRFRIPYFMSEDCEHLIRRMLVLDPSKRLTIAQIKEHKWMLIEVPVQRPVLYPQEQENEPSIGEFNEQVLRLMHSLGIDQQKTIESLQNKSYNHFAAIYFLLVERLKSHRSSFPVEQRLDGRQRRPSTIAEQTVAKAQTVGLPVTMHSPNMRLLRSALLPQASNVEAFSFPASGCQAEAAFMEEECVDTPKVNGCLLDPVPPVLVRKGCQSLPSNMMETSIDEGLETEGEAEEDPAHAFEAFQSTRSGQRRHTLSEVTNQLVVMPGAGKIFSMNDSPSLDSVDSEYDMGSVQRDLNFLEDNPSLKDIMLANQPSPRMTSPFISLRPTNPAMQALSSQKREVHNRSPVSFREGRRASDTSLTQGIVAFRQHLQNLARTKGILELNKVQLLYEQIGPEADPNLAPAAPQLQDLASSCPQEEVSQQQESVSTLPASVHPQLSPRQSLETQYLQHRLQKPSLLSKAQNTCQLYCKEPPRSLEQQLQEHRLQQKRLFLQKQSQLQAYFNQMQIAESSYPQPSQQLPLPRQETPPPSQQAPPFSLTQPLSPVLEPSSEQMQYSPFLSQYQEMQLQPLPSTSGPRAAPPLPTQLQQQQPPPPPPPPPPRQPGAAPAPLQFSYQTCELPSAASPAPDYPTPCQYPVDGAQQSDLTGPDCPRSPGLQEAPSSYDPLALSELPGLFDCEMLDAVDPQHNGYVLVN

This experiment has as its target SIK2 (Homo sapiens (Human), UniProt Q9H0K1). As to the kind of experiment: SIK2 Enzymatic Assay Version 2 (High ATP). It is filed as biochemical. The following applies: 3 mM ATP and 200 μM HDAC5tide final, ADP-Glo Max luminescence. Here is the method: All steps were performed at room temperature. Compounds were pre-plated onto an assay plate using an Echo acoustic dispenser (Labcyte, […] or […]) at 80 nL per well. Enzyme prepared in assay buffer at 6 nM (2× final concentration) was added at 4 μL per well using the Multidrop Combi (Thermo Fisher-used for all additions in this assay) to the assay plate, spun for 1 min at 1000 rpm (Allegra 6KR Beckman Coulter centrifuge), and incubated with compound for 30 minutes. […] ADP-Glo Max Reagent (prepared and aliquoted as per manufacturer instructions) was then added at 8 μL per well, spun and incubated for 2 hours. ADP-Glo Max Detection (prepared and aliquoted as per manufacturer instructions) was added at 8 μL per well to the assay plate, which was spun and incubated for 1 hour. The plate was then read on the Pherastar (BMG Labtech) using a luminescence read. Gain was set between 2200-2500.
(In general: In ADP-Glo the light output rises with the ADP produced.)
With `Cc1cc(Nc2cc3cc(-c4c(O[C@@H]5CNC[C@@H]5F)cnn4C(F)F)ccn3n2)nc(C)n1` [Example 32, 5-[2-(difluoromethyl)-4-[(3R,4S)-4-fluoropyrrolidin-3-yl]oxy-pyrazol-3-yl]-N-(2,6-dimethylpyrimidin-4-yl)pyrazolo[1,5-a]pyridin-2-amine], inhibition was half-maximal at 6.6 nM (IC50).

For the compound `C[C@H]1CNC[C@H]1Oc1cnn(C)c1-c1ccn2nc(NC(=O)C3CC3)cc2c1` (single isomer, unassigned) [Example 413, (3*S,4*S)—N-[5-[2-methyl-4-(4-methylpyrrolidin-3-yl)oxy-pyrazol-3-yl]pyrazolo[1,5-a]pyridin-2-yl]cyclopropanecarboxamide], the IC50 was determined as 140 nM.

`Cc1cc(Nc2cc3cc(-c4c(OC[C@@H]5CC6(CCCC6)CO5)cnn4C)ccn3n2)nc(C)n1` (single isomer, unassigned) [Example 443, (*S)—N-(2,6-dimethylpyrimidin-4-yl)-5-[2-methyl-4-(8-oxaspiro[4.4]nonan-7-ylmethoxy)pyrazol-3-yl]pyrazolo[1,5-a]pyridin-2-amine]: it took 74.3 nM to reach half-maximal inhibition (IC50).

`COC1(COc2noc(C)c2-c2ccn3nc(Nc4cnccn4)cc3c2)CNC1` [Example 318, 5-[3-[(3-methoxyazetidin-3-yl)methoxy]-5-methyl-isoxazol-4-yl]-N-pyrazin-2-yl-pyrazolo[1,5-a]pyridin-2-amine]: the IC50 is 13.5 nM.

`Cc1onc(OC[C@@H]2CCN2C)c1-c1ccn2nc(NC(=O)C3CC3)cc2c1` [Example 498]: 232 nM corresponded to half-maximal inhibition (IC50).

`Cn1ncc(OC[C@H]2CCN2C[C@@H]2CCCO2)c1-c1ccn2nc(NC(=O)C3CC3)cc2c1` (relative stereo) [Example 353, (*S)—N-[5-[2-methyl-4-[[1-(tetrahydrofuran-2-ylmethyl)azetidin-2-yl]methoxy]pyrazol-3-yl]pyrazolo[1,5-a]pyridin-2-yl]cyclopropanecarboxamide]: inhibition was half-maximal at 67.9 nM (IC50).

Consider `Cc1onc(OC[C@](C)(N)c2ccccc2)c1-c1ccn2nc(NC(=O)C3CC3)cc2c1` [Example 326, N-[5-[3-[(2R)-2-amino-2-phenyl-propoxy]-5-methyl-isoxazol-4-yl]pyrazolo[1,5-a]pyridin-2-yl]cyclopropanecarboxamide], for which the IC50 stood at 60 nM. This IC50 and that of the compound before are within 1.5-fold of each other.

The compound `C[C@@H]1NC[C@H]1OCc1cnn(C)c1-c1ccn2nc(NC(=O)C3CC3)cc2c1` [Example 187, N-[5-[2-methyl-4-[[(2S,3R)-2-methylazetidin-3-yl]oxymethyl]pyrazol-3-yl]pyrazolo[1,5-a]pyridin-2-yl]cyclopropanecarboxamide] registered an IC50 of 23.5 nM.

`CCN1CC[C@@H]1COc1cnn(C)c1-c1ccn2nc(Nc3ccc4nc(C)cn4n3)cc2c1` [Example 174, N-[5-[4-[[(2R)-1-ethylazetidin-2-yl]methoxy]-2-methyl-pyrazol-3-yl]pyrazolo[1,5-a]pyridin-2-yl]-2-methyl-imidazo[1,2-b]pyridazin-6-amine] yielded an IC50 of less than 0.847 nM.

For the compound `CN1CC[C@H](Oc2cnn(C)c2-c2ccn3nc(Nc4cncc(C(F)(F)F)n4)cc3c2)C1` [Example 7, 5-[2-methyl-4-[(3S)-1-methylpyrrolidin-3-yl]oxy-pyrazol-3-yl]-N-[6-(trifluoromethyl)pyrazin-2-yl]pyrazolo[1,5-a]pyridin-2-amine], half-maximal inhibition (IC50) was put at 78.7 nM. In other words, the double-digit nanomolar range.

`CC(C)N1CC[C@H]1COc1cnn(C)c1-c1ccn2nc(NC(=O)C3CC3)cc2c1` [Example 48, N-[5-[4-[[(2S)-1-isopropylazetidin-2-yl]methoxy]-2-methyl-pyrazol-3-yl]pyrazolo[1,5-a]pyridin-2-yl]cyclopropanecarboxamide] registered an IC50 of 269 nM. Compared with the last compound, the IC50 is about 3.4-fold higher.

With `CCN1CC[C@H]1COc1cnn(C)c1-c1ccn2nc(Nc3cnc(C)c(C)n3)cc2c1` [Example 359, N-(5,6-dimethylpyrazin-2-yl)-5-[4-[[(2S)-1-ethylazetidin-2-yl]methoxy]-2-methyl-pyrazol-3-yl]pyrazolo[1,5-a]pyridin-2-amine], it took 52.4 nM to reach half-maximal inhibition (IC50).

As to `Cn1ncc(OCC2NCC23CC3)c1-c1ccn2nc(NC(=O)C3CC3)cc2c1` (racemic) [Example 240, (RS)—N-[5-[4-(5-azaspiro[2.3]hexan-6-ylmethoxy)-2-methyl-pyrazol-3-yl]pyrazolo[1,5-a]pyridin-2-yl]cyclopropanecarboxamide], the IC50 stood at 28.7 nM. This IC50 lies about 1.8-fold lower than the previous one.

Take `CN1CCC1(C)COc1cnn(C)c1-c1ccn2nc(NC(=O)C3CC3)cc2c1` (racemic) [Example 54, (rac)-N-[5-[4-[(1,2-dimethylazetidin-2-yl)methoxy]-2-methyl-pyrazol-3-yl]pyrazolo[1,5-a]pyridin-2-yl]cyclopropanecarboxamide]: half-maximal inhibition (IC50) was put at 178 nM.

The compound `CN1CC[C@@H](OCc2cnn(C)c2-c2ccn3nc(NC(=O)C4CC4)cc3c2)C1` [Example 362, N-[5-[2-methyl-4-[[(3R)-1-methylpyrrolidin-3-yl]oxymethyl]pyrazol-3-yl]pyrazolo[1,5-a]pyridin-2-yl]cyclopropanecarboxamide] yielded an IC50 of 52.8 nM.

`CO[C@H]1CNC[C@H]1Oc1noc(C)c1-c1ccn2nc(Nc3cc(C)c(C)nn3)cc2c1` [Example 95, N-(5,6-dimethylpyridazin-3-yl)-5-[3-[(3R,4S)-4-methoxypyrrolidin-3-yl]oxy-5-methyl-isoxazol-4-yl]pyrazolo[1,5-a]pyridin-2-amine] had an IC50 of 5.3 nM.

`Cc1cc(Nc2cc3cc(-c4c(OC[C@H]5CCN5C)cnn4C)ccn3n2)nc(C(F)F)n1` [Example 102, N-[2-(difluoromethyl)-6-methyl-pyrimidin-4-yl]-5-[2-methyl-4-[[(2R)-1-methylazetidin-2-yl]methoxy]pyrazol-3-yl]pyrazolo[1,5-a]pyridin-2-amine] returned an IC50 of less than 0.847 nM.

Compound `CN1CC2(CC2)C1COc1cnn(C)c1-c1ccn2nc(NC(=O)C3CC3)cc2c1` (racemic) [Example 51, (rac)-N-[5-[2-methyl-4-[(5-methyl-5-azaspiro[2.3]hexan-6-yl)methoxy]pyrazol-3-yl]pyrazolo[1,5-a]pyridin-2-yl]cyclopropanecarboxamide] yielded an IC50 of 47 nM.

In turn, `Cn1ncc(O[C@H]2C[C@H]3COC[C@@H](C2)N3)c1-c1ccn2nc(NC(=O)C3CC3)cc2c1` [Example 313, N-[5-[2-methyl-4-[[(1R,5S)-3-oxa-9-azabicyclo[3.3.1]nonan-7-yl]oxy]pyrazol-3-yl]pyrazolo[1,5-a]pyridin-2-yl]cyclopropanecarboxamide] registered an IC50 of 29.6 nM.

In the case of `COCCN1CCC[C@@H]1COc1cnn(C)c1-c1ccn2nc(NC(=O)C3CC3)cc2c1` [Example 428, N-[5-[4-[[(2R)-1-(2-methoxyethyl)pyrrolidin-2-yl]methoxy]-2-methyl-pyrazol-3-yl]pyrazolo[1,5-a]pyridin-2-yl]cyclopropanecarboxamide], the IC50 was found to be 183 nM.

Take `CCN1CC[C@@H]1COc1cnn(C(F)F)c1-c1ccn2nc(Nc3ccnc(OC)n3)cc2c1` [Example 481, 5-[2-(difluoromethyl)-4-[[(2R)-1-ethylazetidin-2-yl]methoxy]pyrazol-3-yl]-N-(2-methoxypyrimidin-4-yl)pyrazolo[1,5-a]pyridin-2-amine]: the IC50 is 17.6 nM.

In turn, `COc1nccc(Nc2cc3cc(-c4c(OC[C@H]5CCN5C)cnn4C)ccn3n2)n1` [Example 119, N-(2-methoxypyrimidin-4-yl)-5-[2-methyl-4-[[(2R)-1-methylazetidin-2-yl]methoxy]pyrazol-3-yl]pyrazolo[1,5-a]pyridin-2-amine] had a half-inhibitory concentration (IC50) of 1.6 nM.

Take `CN1CC[C@H](Oc2cnn(C)c2-c2ccn3nc(Nc4ccnc(C5CC5)n4)cc3c2)C1` [Example 281, N-(2-cyclopropylpyrimidin-4-yl)-5-[2-methyl-4-[(3S)-1-methylpyrrolidin-3-yl]oxy-pyrazol-3-yl]pyrazolo[1,5-a]pyridin-2-amine]: the IC50 was determined as 29.1 nM.

Turning to `CN1CC[C@@H]1COc1cnn(C)c1-c1ccn2nc(NC(=O)[C@H]3C[C@@H]3c3ccccc3)cc2c1` (single isomer, unassigned) [Example 156, (1*S, 2*S)—N-[5-[2-methyl-4-[((R)-1-methylazetidin-2-yl)methoxy]pyrazol-3-yl]pyrazolo[1,5-a]pyridin-2-yl]-2-phenyl-cyclopropanecarboxamide], it took 3.1 nM to reach half-maximal inhibition (IC50).

In the case of `Cc1cc(Nc2cc3cc(-c4c(O[C@H]5CCN(C)C5)cnn4C)ccn3n2)nnc1C` [Example 272, N-(5,6-dimethylpyridazin-3-yl)-5-[2-methyl-4-[(3S)-1-methylpyrrolidin-3-yl]oxy-pyrazol-3-yl]pyrazolo[1,5-a]pyridin-2-amine], the half-inhibitory concentration (IC50) was 43.5 nM. This IC50 is about 14-fold higher than that of the compound before.

In the case of `Cc1onc(OC[C@]23CN[C@H](CO2)C3)c1-c1ccn2nc(NC(=O)C3CC3)cc2c1` [Example 81, N-[5-[5-methyl-3-[[(1S,4S)-5-oxa-2-azabicyclo[2.2.1]heptan-4-yl]methoxy]isoxazol-4-yl]pyrazolo[1,5-a]pyridin-2-yl]cyclopropanecarboxamide], the IC50 amounted to 9.7 nM.

For `C[C@@H]1C[C@H](Oc2cnn(C)c2-c2ccn3nc(NC(=O)C4CC4)cc3c2)CN1` [Example 233, N-[5-[2-methyl-4-[(3S,5R)-5-methylpyrrolidin-3-yl]oxy-pyrazol-3-yl]pyrazolo[1,5-a]pyridin-2-yl]cyclopropanecarboxamide], half-maximal inhibition (IC50) required 30.2 nM. Against the preceding compound, the IC50 is about 3.1-fold higher.

Compound `Cc1nccc(Nc2cc3cc(-c4c(OC[C@H]5CCCN5C)cnn4C)ccn3n2)n1` [Example 286, 5-[2-methyl-4-[[(2R)-1-methylpyrrolidin-2-yl]methoxy]pyrazol-3-yl]-N-(2-methylpyrimidin-4-yl)pyrazolo[1,5-a]pyridin-2-amine] registered an IC50 of 23.5 nM.

What is called IC50 is the midpoint of a concentration-inhibition curve. Read a low IC50 as greater potency in that assay.
